Test results taken from ChEMBL document CHEMBL1201862, “PubChem BioAssay data set” (2004).
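Assay format: 96-well plates, 48-hour exposure. The concentration for 50% growth inhibition is given as GI50.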 Activity calls are given as the source filed them. Cut-off read from the data, not from the text of the source: active = GI50 up to about 1.1 µM and inactive = higher.

How the values were obtained:
Test in all cases: NCI-60 cell line screen, 48 h
[1] = system: 786-0
[2] = system: A549
[3] = system: CAKI-1
[4] = system: CCRF-CEM
[5] = system: EKVX
[6] = system: HOP-18
[7] = system: HT-29
[8] = system: KM12
[9] = system: M14
[10] = system: NCI-H522
[11] = system: OVCAR-8
[12] = system: RPMI-8226
[13] = system: SK-MEL-28
[14] = system: SK-MEL-5
[15] = system: SW-620
[16] = system: UACC-62
[17] = system: HOP-92
[18] = system: MCF7
[19] = system: MDA-MB-231
[20] = system: MDA-MB-435

Measured: GI50

CCOC(=O)C(C(=O)c1ccccc1)=C1NCCN1
inactive: [1] > 100 µM | [2] > 100 µM | [3] > 100 µM | [4] > 100 µM | [5] > 100 µM | [6] 4.06 µM | [7] > 100 µM | [8] > 100 µM | [9] > 100 µM | [10] > 100 µM | [11] > 100 µM | [12] > 100 µM | [13] > 100 µM | [14] > 100 µM | [15] > 100 µM | [16] > 100 µM

O=C1C2C3CC4C5C3C1C5C1(SCCS1)C42 (stereo not given)
inactive: [1] > 100 µM | [2] > 100 µM | [3] > 100 µM | [4] > 100 µM | [6] > 100 µM | [8] > 100 µM | [9] > 100 µM | [10] > 100 µM | [11] > 100 µM | [12] > 100 µM | [13] > 100 µM | [14] > 100 µM | [15] > 100 µM | [16] > 100 µM

CCN(CC)CCn1c2c3ccccc3ccc2c2oc(=O)c3ccccc3c21
inactive: [1] 22.9 µM | [2] > 100 µM | [3] > 100 µM | [4] > 100 µM | [5] > 100 µM | [6] > 100 µM | [17] 83.6 µM | [7] > 100 µM | [8] > 100 µM | [9] 45.5 µM | [10] > 100 µM | [11] > 100 µM | [12] > 100 µM | [13] > 100 µM | [15] > 100 µM | [16] > 100 µM

C[Si](C)(C)OC1(C#N)C2C3CC4C2C(=O)C2C4C3C21 (stereo not given)
inactive: [1] > 100 µM | [2] > 100 µM | [3] > 100 µM | [4] > 100 µM | [6] > 100 µM | [8] > 100 µM | [9] > 100 µM | [11] > 100 µM | [12] > 100 µM | [13] > 100 µM | [14] > 100 µM | [15] > 100 µM | [16] > 100 µM

COc1ccc(C2Cc3cc(OC)c(OC)c(OC)c3C2=O)cc1 (stereo not given)
inactive: [1] > 100 µM | [2] > 100 µM | [3] > 100 µM | [4] > 100 µM | [5] > 100 µM | [6] > 100 µM | [7] > 100 µM | [8] > 100 µM | [9] > 100 µM | [11] > 100 µM | [12] > 100 µM | [13] > 100 µM | [14] 75.3 µM | [15] > 100 µM | [16] > 100 µM

C=CCNC1=C2C[C@@H](C)C[C@@H](OC)[C@@H](OC(=O)CCCN)[C@H](C)/C=C(\C)[C@@H](OC(N)=O)[C@H](OC)/C=C\C=C(/C)C(=O)NC(=CC1=O)C2=O
inactive: [1] 17.1 µM | [2] 15.7 µM | [3] 19.8 µM | [4] 10.6 µM | [5] 18.7 µM | [17] 14.7 µM | [7] 5.37 µM | [8] 4.14 µM | [9] 9.38 µM | [18] 6.98 µM | [19] 15 µM | [20] 20.3 µM | [10] 6.82 µM | [11] 19.4 µM | [12] 14.3 µM | [13] 16.3 µM | [14] 8.39 µM | [15] 19.7 µM | [16] 15.2 µM

Cc1ccnc(NS(=O)(=O)c2ccc(NC3=CC(=O)C(=O)c4ccccc43)cc2)n1
inactive: [1] > 100 µM | [2] > 100 µM | [3] > 100 µM | [4] > 100 µM | [5] > 100 µM | [6] > 100 µM | [7] > 100 µM | [8] > 100 µM | [9] > 100 µM | [10] > 100 µM | [11] > 100 µM | [13] > 100 µM | [14] > 100 µM | [15] > 100 µM | [16] > 100 µM

CCN(CC)c1ccc2cc(C(=O)NCc3ccccc3)c(=N)oc2c1
inactive: [1] > 62.1 µM | [2] 42.1 µM | [3] > 44.8 µM | [4] 13.3 µM | [5] 13.7 µM | [17] 22.1 µM | [7] 9.02 µM | [8] 8.93 µM | [9] 11.1 µM | [18] 36.4 µM | [19] > 46.3 µM | [20] 6.7 µM | [10] 9.59 µM | [11] 37.7 µM | [12] 6.95 µM | [13] 66.2 µM | [14] 27.6 µM | [15] 6.01 µM | [16] 14.3 µM

O=C(N/N=C/c1cccc(O)c1O)N/N=C/c1cccc(O)c1O
inactive: [1] 15.1 µM | [2] 35.9 µM | [4] 3.5 µM | [5] 20.5 µM | [6] 19.2 µM | [17] 17.4 µM | [7] 44.8 µM | [8] 26.5 µM | [9] 14 µM | [11] 16.6 µM | [12] 19.8 µM | [13] 20.1 µM | [15] 17.5 µM | [16] 11.9 µM

COc1cccc2c1C(=O)C1=C(C2=O)C(O)CC(C)(C)O1 (stereo not given)
inactive: [1] 42.4 µM | [2] 32.1 µM | [3] 50.7 µM | [4] 23.4 µM | [5] 43.1 µM | [17] 53.2 µM | [7] 37.7 µM | [8] 27.9 µM | [9] 54.6 µM | [18] 36.6 µM | [19] 25.6 µM | [20] 20 µM | [10] 26.2 µM | [11] 27.7 µM | [12] 22.3 µM | [13] > 100 µM | [14] 14.4 µM | [15] 34.1 µM | [16] 25.1 µM

CN(C)CC/C(=N\Nc1ccccc1)c1ccccc1
inactive: [1] 23 µM | [2] 45 µM | [3] 3.18 µM | [5] 15.7 µM | [6] 31 µM | [17] 11.1 µM | [7] 2.13 µM | [8] 1.57 µM | [9] 2 µM | [11] 4.35 µM | [12] 43.7 µM | [13] > 10 µM | [14] 17.7 µM | [16] > 100 µM

CCC1OC(=O)CC(O)C(C)C(OC2OC(C)CC(N(C)C)C2O)C(CC=O)CC(C)C(=O)/C=C/C2(C)OC2C1C (stereo not given)
inactive: [1] 17.2 µM | [2] 49.4 µM | [3] 31.5 µM | [4] 4.91 µM | [5] 15.6 µM | [17] 27.9 µM | [7] 17.9 µM | [8] 14.4 µM | [9] 31 µM | [18] 5.47 µM | [19] 28.3 µM | [20] 16.8 µM | [10] 15 µM | [11] 22.4 µM | [12] 27 µM | [13] 21.4 µM | [14] 15.2 µM | [15] 17 µM | [16] 14.1 µM

Cc1ccccc1C(=O)Oc1ccc(O)cc1
inactive: [1] > 100 µM | [2] > 100 µM | [3] > 100 µM | [4] > 100 µM | [5] > 100 µM | [6] > 100 µM | [7] > 100 µM | [8] > 100 µM | [9] > 100 µM | [10] > 100 µM | [11] > 100 µM | [12] > 100 µM | [14] > 100 µM | [15] > 100 µM | [16] > 100 µM

CCOC(=O)CSc1nnc2cc(CN3CCCC3)c(-c3ccc(Cl)cc3)nn12
inactive: [1] 92.3 µM | [2] > 100 µM | [3] > 100 µM | [4] 48.1 µM | [5] > 100 µM | [17] > 100 µM | [7] 74.5 µM | [8] > 100 µM | [9] > 100 µM | [18] 46.9 µM | [19] > 100 µM | [20] 72.9 µM | [10] 39.7 µM | [11] > 100 µM | [12] 63.2 µM | [13] > 100 µM | [14] > 100 µM | [15] > 100 µM | [16] > 100 µM

Cn1ccnc1Sc1ccc(/C=N/c2ccc3nc(SCC(=O)NC4CCCCC4)sc3c2)cc1[N+](=O)[O-]
inactive: [1] 11.6 µM | [2] > 100 µM | [3] > 100 µM | [4] > 100 µM | [5] > 100 µM | [17] 12.1 µM | [7] > 100 µM | [8] > 100 µM | [9] 38.2 µM | [18] > 100 µM | [19] 31.4 µM | [20] > 100 µM | [10] 65.9 µM | [11] > 100 µM | [12] > 100 µM | [13] > 100 µM | [14] > 100 µM | [15] > 100 µM | [16] 19.5 µM

CC(=O)NS(=O)(=O)c1ccc(NCc2cccc3c(=O)c4ccc(Cl)cc4oc23)cc1
inactive: [1] > 55.8 µM | [2] > 80.9 µM | [3] 20.5 µM | [4] 4.2 µM | [5] 38.3 µM | [17] 16.6 µM | [7] 31.8 µM | [8] 20.5 µM | [9] 41.1 µM | [18] 8.3 µM | [19] > 59 µM | [20] 38.3 µM | [10] 27.4 µM | [11] 16.9 µM | [12] 11.2 µM | [13] 73.8 µM | [14] 40.1 µM | [15] 34 µM | [16] 48 µM
